Reference: patent publication US8163779B2, “Glucokinase activators” (Takeda San Diego, Inc., priority 2006, dated 2012)

What follows are molecules tested against T1, glucokinase (GK) (Homo sapiens, UniProt P35557) (assay: enzymatic glucokinase activity assay (ATP consumption, KinaseGlo luminescence)). Settings: recombinant GK residues 12-465; 5 μM ATP, 5 mM Glucose; Kact = concentration that displays 50% of the maximal increase in GK activity; read-out: pKact.
T1 construct: I.D. No. 1 corresponds to residues 12-465 of glucokinase; made in house; host or cells: E. coli DH10b-T1r
T1 sequence (P35557 with tags, fused parts or gaps isoform P35557-2): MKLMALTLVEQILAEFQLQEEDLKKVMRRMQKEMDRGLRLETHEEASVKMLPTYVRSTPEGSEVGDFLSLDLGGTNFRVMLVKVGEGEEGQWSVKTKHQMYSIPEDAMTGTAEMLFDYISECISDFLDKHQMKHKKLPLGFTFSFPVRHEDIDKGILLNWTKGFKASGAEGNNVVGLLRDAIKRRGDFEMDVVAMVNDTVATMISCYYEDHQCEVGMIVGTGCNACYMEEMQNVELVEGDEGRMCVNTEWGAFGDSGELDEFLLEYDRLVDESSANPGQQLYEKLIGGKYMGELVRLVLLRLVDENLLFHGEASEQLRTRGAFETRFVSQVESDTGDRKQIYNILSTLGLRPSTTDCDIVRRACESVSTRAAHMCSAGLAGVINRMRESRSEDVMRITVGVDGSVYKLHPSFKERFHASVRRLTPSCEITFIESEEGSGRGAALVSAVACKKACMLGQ
Type: biochemical
In short: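 Activation was scored as ATP consumption, quantified by KinaseGlo luciferase luminescence after a 60 min room-temperature reaction. Reactions contained E. coli-expressed, purified GK, 5 μM ATP, 5 mM glucose, 10 mM MgCl2, 0.01% Brij35 and 2% DMSO at pH 7.2; pKact was fitted non-linearly.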

EC50 [µM]	SMILES
1.58 to 15.8	Cc1cc(S(=O)(=O)C2CCOCC2)cc(=O)n1[C@@H](CC1CCCC1)C(=O)Nc1ncc(F)s1 [Example 193, (S)-3-cyclopentyl-N-(5-fluorothiazol-2-yl)-2-(6-methyl-2-oxo-4-(tetrahydro-2H-pyran-4-ylsulfonyl)pyridin-1(2H)-yl)propanamide]
> 15.8	O=C(Nc1ncc(Cl)s1)[C@@H](CC1CCOCC1)n1cc(Cl)c(S(=O)(=O)C2CC2)cc1=O [Example 195, (R)-2-(5-chloro-4-(cyclopropylsulfonyl)-2-oxopyridin-1(2H)-yl)-N-(5-chlorothiazol-2-yl)-3-(tetrahydro-2H-pyran-4-yl)propanamide]
> 15.8	CN(C)C(=O)CN1CCN(Cc2cnc(NC(=O)C(CC3CCOCC3)n3ccc(S(=O)(=O)C4CC4)cc3=O)s2)CC1 (stereo not shown) [Example 150, 2-(4-(cyclopropylsulfonyl)-2-oxopyridin-1(2H)-yl)-N-(5-((4-(2-(dimethylamino)-2-oxoethyl)piperazin-1-yl)methyl)thiazol-2-yl)-3-(tetrahydro-2H-pyran-4-yl)propanamide]
< 1.58	CN(C)c1ccc2nc(NC(=O)C(CC3CCOCC3)n3ccc(S(=O)(=O)C4CC4)cc3=O)sc2n1 (stereo not shown) [Example 128, 2-(4-(cyclopropylsulfonyl)-2-oxopyridin-1(2H)-yl)-N-(5-(dimethylamino)thiazolo[5,4-b]pyridin-2-yl)-3-(tetrahydro-2H-pyran-4-yl)propanamide]
> 15.8	CCS(=O)(=O)c1ccc(-c2cc(C)n([C@@H](CC3CCCCC3)C(=O)Nc3nccs3)c(=O)c2)cc1 [Example 102, (S)-3-cyclohexyl-2-(4-(4-(ethylsulfonyl)phenyl)-6-methyl-2-oxopyridin-1(2H)-yl)-N-(thiazol-2-yl)propanamide]
1.58 to 15.8	Cc1cc(S(=O)(=O)C2CC2)cc(=O)n1[C@@H](CC1CCCC1)C(=O)Nc1ccc(C(N)=O)cn1 [Example 180, (S)-6-(3-cyclopentyl-2-(4-(cyclopropylsulfonyl)-6-methyl-2-oxopyridin-1(2H)-yl)propanamido)nicotinamide]
1.58 to 15.8	O=C(Nc1ncc(F)s1)C(CC1CCOCC1)n1cc(Cl)c(S(=O)(=O)C2CCCC2)cc1=O (stereo not shown) [Example 186, 2-(5-chloro-4-(cyclopentylsulfonyl)-2-oxopyridin-1(2H)-yl)-N-(5-fluorothiazol-2-yl)-3-(tetrahydro-2H-pyran-4-yl)propanamide]
> 15.8	COc1ccc2nc(NC(=O)C(CC3CCOCC3)n3ccc(N4CC[C@H](O)C4)cc3=O)sc2n1 (stereo partly drawn) [Example 125, 2-(4-((S)-3-hydroxypyrrolidin-1-yl)-2-oxopyridin-1(2H)-yl)-N-(5-methoxythiazolo[5,4-b]pyridin-2-yl)-3-(tetrahydro-2H-pyran-4-yl)propanamide]
1.58 to 15.8	O=C(Nc1ncc(Cc2ccc(F)cc2)s1)C(CC1CCOCC1)n1ccc(S(=O)(=O)C2CC2)cc1=O (stereo not shown) [Example 138, 2-(4-(cyclopropylsulfonyl)-2-oxopyridin-1(2H)-yl)-N-(5-(4-fluorobenzyl)thiazol-2-yl)-3-(tetrahydro-2H-pyran-4-yl)propanamide]
> 15.8	CC(C)(O)c1cnc(NC(=O)C(CC2CCOCC2)n2ccc(S(=O)(=O)C3CC3)cc2=O)s1 (stereo not shown) [Example 117, 2-(4-(cyclopropylsulfonyl)-2-oxopyridin-1(2H)-yl)-N-(5-(2-hydroxypropan-2-yl)thiazol-2-yl)-3-(tetrahydro-2H-pyran-4-yl)propanamide]
> 15.8	Cc1cc(S(=O)(=O)c2cccc(Cl)c2)cc(=O)n1[C@H](CC1CCOCC1)C(=O)Nc1ncc(F)s1 [Example 169, (R)-2-(4-(3-chlorophenylsulfonyl)-6-methyl-2-oxopyridin-1(2H)-yl)-N-(5-fluorothiazol-2-yl)-3-(tetrahydro-2H-pyran-4-yl)propanamide]
1.58 to 15.8	Cc1cc(S(=O)(=O)C2CCS(=O)(=O)CC2)cc(=O)n1[C@@H](CC1CCCCC1)C(=O)Nc1ncc(Cl)s1 [Example 187, (S)-N-(5-chlorothiazol-2-yl)-2-(4-(1,1-dioxotetrahydrothiopyran-4-ylsulfonyl)-6-methyl-2-oxopyridin-1(2H)-yl)-3-cyclohexyipropanamide]
> 15.8	O=C(Nc1ncc(Cl)s1)[C@@H](CC1CCOCC1)n1ccc(S(=O)(=O)CC(F)(F)F)cc1=O [Example 148, (R)-N-(5-chlorothiazol-2-yl)-2-(2-oxo-4-(2,2,2-trifluoroethylsulfonyl)pyridin-1(2H)-yl)-3-(tetrahydro-2H-pyran-4-yl)propanamide]
> 15.8	CC(=O)Nc1ccc(=O)n(C(CC2CCOCC2)C(=O)Nc2ncc(Cl)s2)c1 (stereo not shown) [Example 156, 2-(5-acetamido-2-oxopyridin-1(2H)-yl)-N-(5-chlorothiazol-2-yl)-3-(tetrahydro-2H-pyran-4-yl)propanamide]

Continued, molecule first:

SMILES	EC50 [µM]
O=C(Nc1ncc(Cl)s1)[C@H](CC1CCOCC1)n1ccc(S(=O)(=O)C2CCCC2)cc1=O [Example 32, (S)-N-(5-chlorothiazol-2-yl)-2-(4-(cyclopentylsulfonyl)-2-oxopyridin-1(2H)-yl)-3-(tetrahydro-2H-pyran-4-yl)propanamide]	< 1.58
CS(=O)(=O)c1ccn(C(Cc2c(Cl)cccc2Cl)C(=O)Nc2ncc(Cl)s2)c(=O)c1 (stereo not shown) [Example 17, N-(5-chlorothiazol-2-yl)-3-(2,6-dichlorophenyl)-2-(4-(methylsulfonyl)-2-oxopyridin-1(2H)-yl)propanamide]	> 15.8
COc1ccc2nc(NC(=O)[C@H](CC3CCOCC3)n3ccc(S(=O)(=O)C4CCCC4)cc3=O)sc2n1 [Example 59, (S)-2-(4-(cyclopentylsulfonyl)-2-oxopyridin-1(2H)-yl)-N-(5-methoxythiazolo[5,4-b]pyridin-2-yl)-3-(tetrahydro-2H-pyran-4-yl)propanamide]	< 1.58
Cc1cc(-c2ccccc2)cc(=O)n1[C@@H](CC1CCCCC1)C(=O)Nc1nccs1 [Example 90, (S)-3-cyclohexyl-2-(6-methyl-2-oxo-4-phenylpyridin-1(2H)-yl)-N-(thiazol-2-yl)propanamide]	> 15.8
Cc1cc(S(=O)(=O)C2CCCC2)cc(=O)n1C(CCC(C)C)C(=O)Nc1nccs1 (stereo not shown) [Example 19, 2-(4-(cyclopentylsulfonyl)-6-methyl-2-oxopyridin-1(2H)-yl)-5-methyl-N-(thiazol-2-yl)hexanamide]	1.58 to 15.8
O=C(Nc1ccc(Cl)cn1)[C@H](CC1CCOCC1)n1ccc(S(=O)(=O)C2CCCC2)cc1=O [Example 42, (S)-N-(5-chloropyridin-2-yl)-2-(4-(cyclopentylsulfonyl)-2-oxopyridin-1(2H)-yl)-3-(tetrahydro-2H-pyran-4-yl)propanamide]	< 1.58
Cc1cc(S(=O)(=O)C2CCCC2)cc(=O)n1[C@H](CC1CCOCC1)C(=O)Nc1ncc(F)s1 [Example 39, (R)-2-(4-(cyclopentylsulfonyl)-6-methyl-2-oxopyridin-1(2H)-yl)-N-(5-fluorothiazol-2-yl)-3-(tetrahydro-2H-pyran-4-yl)propanamide]	> 15.8
Cc1ccc(S(=O)(=O)c2cc(C)n(C(CC(C)(C)C)C(=O)Nc3ncc(F)s3)c(=O)c2)cc1 (stereo not shown) [Example 43, N-(5-fluorothiazol-2-yl)-4,4-dimethyl-2-(6-methyl-2-oxo-4-tosylpyridin-1(2H)-yl)pentanamide]	1.58 to 15.8
Cc1cc(C)cc(CC(C(=O)Nc2ncc(Cl)s2)n2ccc(S(C)(=O)=O)cc2=O)c1 (stereo not shown) [Example 24, N-(5-chlorothiazol-2-yl)-3-(3,5-dimethylphenyl)-2-(4-(methylsulfonyl)-2-oxopyridin-1(2H)-yl)propanamide]	> 15.8
Cc1occc1S(=O)(=O)c1cc(C)n([C@@H](CC2CCOCC2)C(=O)Nc2ncc(Cl)s2)c(=O)c1 [Example 64, (S)-N-(5-chlorothiazol-2-yl)-2-(6-methyl-4-(2-methylfuran-3-ylsulfonyl)-2-oxopyridin-1(2H)-yl)-3-(tetrahydro-2H-pyran-4-yl)propanamide]	1.58 to 15.8
O=C(Nc1ncc(Cl)s1)[C@@H](CC1CCOCC1)n1ccc(S(=O)(=O)C2CCCC2)cc1=O [Example 31, (R)-N-(5-chlorothiazol-2-yl)-2-(4-(cyclopentylsulfonyl)-2-oxopyridin-1(2H)-yl)-3-(tetrahydro-2H-pyran-4-yl)propanamide]	> 15.8
COc1cccc(CC(C(=O)Nc2nccs2)n2c(C)cc(S(=O)(=O)C3CCCC3)cc2=O)c1 (stereo not shown) [Example 20, 2-(4-(cyclopentylsulfonyl)-6-methyl-2-oxopyridin-1(2H)-yl)-3-(3-methoxyphenyl)-N-(thiazol-2-yl)propanamide]	> 15.8
Cc1cc(S(=O)(=O)Cc2cccs2)cc(=O)n1C(CC1CCCCC1)C(=O)Nc1ncc(Cl)s1 (stereo not shown) [Example 80, N-(5-chlorothiazol-2-yl)-3-cyclohexyl-2-(6-methyl-2-oxo-4-(thiophen-2-ylmethylsulfonyl)pyridin-1(2H)-yl)propanamide]	1.58 to 15.8
O=C(Nc1ncc(F)s1)[C@H](CC1CCOCC1)n1ccc(S(=O)(=O)C2CC2)cc1=O [Example 35, (S)-2-(4-(cyclopropylsulfonyl)-2-oxopyridin-1(2H)-yl)-N-(5-fluorothiazol-2-yl)-3-(tetrahydro-2H-pyran-4-yl)propanamide]	< 1.58
